Type in all cases: cell-based
The test system of data set [1] is ldlA[mSR-BI] cells. The data set is described as follows: Cytotoxicity in the assay cell line. Particulars: 24 h incubation stated for 1a.
Data set [2] concerns the target T1, mouse SR-BI (ldlA[mSR-BI]) (Mus musculus, UniProt Q61009).
T1 sequence (Q61009 1-509): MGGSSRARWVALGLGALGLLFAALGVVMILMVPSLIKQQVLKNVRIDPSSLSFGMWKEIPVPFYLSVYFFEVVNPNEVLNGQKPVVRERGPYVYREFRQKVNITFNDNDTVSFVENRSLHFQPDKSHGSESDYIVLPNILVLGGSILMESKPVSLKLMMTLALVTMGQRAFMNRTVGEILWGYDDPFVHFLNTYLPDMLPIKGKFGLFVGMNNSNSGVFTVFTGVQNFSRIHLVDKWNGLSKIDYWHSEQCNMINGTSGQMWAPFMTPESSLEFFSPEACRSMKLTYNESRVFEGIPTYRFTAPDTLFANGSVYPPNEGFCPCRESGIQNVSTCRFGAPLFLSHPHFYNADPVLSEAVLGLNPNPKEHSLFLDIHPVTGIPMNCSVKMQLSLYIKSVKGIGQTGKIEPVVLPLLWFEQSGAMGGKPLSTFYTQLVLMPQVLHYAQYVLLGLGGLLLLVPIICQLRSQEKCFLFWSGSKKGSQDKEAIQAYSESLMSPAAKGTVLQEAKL
The data set is described as follows: DiI-HDL uptake assay.

Data set [3] has as its system receptor-mediated endocytosis of transferrin by ldlA[mSR-BI] cells. Briefly: Endocytosis of Alexa-594-labeled transferrin. As to conditions: concentrations up to 35 μM.

Structures are written as SMILES. “Also recorded” adds a separate entry of the source.

Turning to `COc1ccc(-c2nnn(CC(=O)N(C3CCCCC3)C(C)C(=O)NC3CCCC3)n2)cc1OC` (centres unmarked) [Compound 1a], the Cytotoxicity entry in data set [1] is “no measurable cytotoxicity”. As for `COc1ccc(-c2nnn(CC(=O)N(CC3CCCCC3)C(C)C(=O)NC3CCCC3)n2)cc1OC` (centres unmarked) [Compound 4d], in data set [2] (carbon atom inserted between cyclohexyl group and backbone nitrogen), the “Fold decrease in activity relative to 1a” value was “greater than 20 fold”. For the compound `C[C@H](C(=O)NC1CCCC1)N(C(=O)Cn1nnc(-c2ccc3c(c2)OCO3)n1)C1CCCCC1` [Compound 5e], the “Fold more potent than its enantiomer 5d” value in data set [2] ((R)-isomer vs (S)-isomer) is reported as 100 fold. Also, in data set [1] (listed as ML279), the Cytotoxicity result is listed as “non-toxic; also recorded: not cytotoxic”. The “Inhibition of transferrin endocytosis” value in data set [3] is reported as “no inhibition”.

Source of the values: PMC4469081 (Bioorganic & medicinal chemistry letters, 2015).
